The values below come from US6599713B1, “Method for quantitating leukocyte count in whole blood sample” (priority 1999, dated 2003).

For assay [1], the system named is white blood cells contained in a whole blood sample. As to the kind of experiment: MPO-releasing effects of various surfactants on whole blood, ELISA (Examples 3 to 5). It is filed as cell-based, human. Particulars: 60 minutes on ice. The protocol: 10 ml of healthy human whole blood was collected using a 28 G winged intravenous injection needle (manufactured and sold by Terumo Corporation, Japan), and immediately mixed with 10 mg of EDTA-2K (manufactured and sold by Dojin Laboratories, Japan), and the resultant EDTA-containing whole blood sample was subjected to the below-described various measurements within 1 hour from the blood collection.
500 μl of the blood was put in a 2-ml Eppendorf tube, and 500 μl of a 1% (w/v) aqueous surfactant solution was added to the tube, and the resultant mixture was stirred for 2 seconds by a Vortex mixer. Subsequently, the mixture was allowed to stand for 60 minutes on ice to thereby lyze the white blood cells. After the lysis of the white blood cells, 100 μl of the mixture was taken out and added to 900 μl of a PBS solution containing dissolved therein 1% BSA (trade name: “Sigma fraction V”, manufactured and sold under the brand of SIGMA™, U.S.A.). The resultant mixture was stirred by a Vortex mixer, and then 10 μl of the mixture was taken out and diluted 2,000-fold with 1% BSA/PBS solution. The resultant diluted mixture was subjected to a measurement by ELISA.
The outline of the ELISA is as follows. A 5 μg/ml PBS solution of an anti-MPO antibody was put into the wells of a Nunc Immuno Plate (manufactured and sold by Nalge Nunc International, Denmark) in an amount of 100 μl per well. The solution in each well was sealed and subjected to a reaction for 18 hours at 4° C. thereby immobilizing the primary antibody. The wells were washed with a washing solution (0.05% Tween™ 20/PBS) and then subjected to blocking for 1 hour at room temperature by using 200 μl of a blocking solution (1% BSA/PBS), and then washed twice with the washing solution. […] The wells were washed 5 times with a washing solution, and 100 μl of a just-prepared TMB solution (manufactured and sold by Kirkegaad & Perry Laboratories, U.S.A.) was added thereto to effect a color reaction. 2 Minutes after the start of the color reaction, 100 μl of a 1 N sulfuric acid solution (manufactured and sold by Nacalai Tesque, Inc., Japan) was added to the wells to thereby terminate the reaction. Then, the absorbance at 450 nm was measured by means of a plate reader (manufactured and sold by Bio-Rad Laboratories, U.S.A.).
With respect to the measurement of the MPO concentration of the sample, MPO (manufactured and sold by Elastin Products Co., INC., U.S.A.) was added to the sample so that the final concentration of the added MPO became 5 ng/ml or 10 ng/ml, and the resultant mixture was measured with respect to the MPO concentration. From the obtained value of MPO concentration, a calibration curve for each sample was obtained. The obtained calibration curve was corrected, based on its relationship with a calibration curve obtained with respect to a standard MPO solution, and the corrected calibration curve of each sample was used to determine the MPO concentration of the whole blood. The measurement was conducted 3 times, and a mean value±standard deviation was obtained.
A general note: ELISA stands for enzyme-linked immunosorbent assay.

For assay [2], the system named is white blood cells contained in the whole blood. The experiment in a line: Concentration of surfactant and release amount of MPO in whole blood, ELISA (Example 2). In kind it is cell-based, human. Particulars: 60 minutes on ice, mean ± SD of 3. The protocol: 10 ml of healthy human whole blood was collected and immediately mixed with 10 mg of EDTA-2K (manufactured and sold by Dojin Laboratories, Japan), and the resultant EDTA-containing whole blood sample was subjected to the below-described various measurements within 1 hour from the blood collection.
500 μl of the blood was put in a 2-ml Eppendorf tube, and 500 μl of an aqueous surfactant solution having a surfactant concentration of 0.1, 0.2, 0.4, 0.6, 1, 2, 4, 10 or 20% (w/v) was added to the tube, and the resultant mixture was stirred for 2 seconds by a Vortex mixer. Subsequently, the mixture was allowed to stand for 60 minutes on ice to thereby lyze the white blood cells. […] After the lysis of the white blood cells, 100 μl of the mixture was taken out and added to 900 μl of a PBS solution containing dissolved therein 1% BSA (trade name: “Sigma fraction V”, manufactured and sold under the brand of SIGMA™, U.S.A.). The resultant mixture was stirred by a Vortex mixer, and then 10 μl of the mixture was taken out and diluted 2,000-fold with 1% BSA/PBS solution. The resultant diluted mixture was subjected to a measurement by ELISA.
The outline of the ELISA is as follows. A 5 μg/ml PBS solution of a rabbit anti-human myeloperoxidase antibody (manufactured and sold by Calbiochem-Novabiochem Corporation, U.S.A.)(hereinafter, frequently referred to as “anti-MPO antibody”) was put into the wells of a Nunc Immuno Plate (manufactured and sold by Nalge Nunc International, Denmark) in an amount of 100 μl per well. The solution in each well was sealed and subjected to a reaction for 18 hours at 4° C. thereby immobilizing the primary antibody. The wells were washed with a washing solution (0.05% Tween™ 20/PBS) and then subjected to blocking for 1 hour at room temperature by using 200 μl of a blocking solution (1% BSA/PBS), and then washed twice with the washing solution. Then, the above-obtained diluted mixture (blood sample which had been treated with a surfactant and then diluted) was put in the wells in an amount of 100 μl per well, and subjected to a reaction for 2 hours at room temperature. Then, the wells were washed 3 times with the washing solution, and a 5 μg/ml solution of an anti-MPO antibody labeled with horseradish peroxidase (hereinafter referred to as “HRP”) was put in the wells in an amount of 100 μl per well, and subjected to a reaction for 1 hour at room temperature. As the above-mentioned HRP-labeled anti-MPO antibody, an anti-human MPO antibody (manufactured and sold by Calbiochem-Novabiochem Corporation, U.S.A.) which had been labeled with HRP Grade IV (manufactured and sold under the brand of SIGMA™, U.S.A.) was employed. The labeling was performed by the method described in Analytical Biochemistry, 132, 68-73 (1983). The wells were washed 5 times with the washing solution, and 100 1 μl of a just-prepared TMB solution (manufactured and sold by Kirkegaad & Perry Laboratories, U.S.A.) was added thereto to effect a color reaction. 2 Minutes after the start of the color reaction, 100 μl of a 1 N sulfuric acid solution (manufactured and sold by Nacalai Tesque, Inc., Japan) was added to the wells to thereby terminate the reaction. Then, the absorbance at 450 nm was measured by means of a plate reader (manufactured and sold by Bio-Rad Laboratories, U.S.A.). The measurement was conducted 3 times, and a mean value±standard deviation was obtained.

For assay [3], the system named is white blood cells in whole blood. Particulars: nonionic surfactants, dependence on HLB value.
Method: Blood collection, treatment with a surfactant, and ELISA were performed in the same manner as in Example 3 in order to measure the MPO-releasing effects of the below-mentioned various surfactants.
These surfactants were individually dissolved in purified water (manufactured and sold by Kyoei Seiyaku Co., Japan) so as to obtain 10% or 2% (w/v) aqueous solutions. Before use in the testing, each of the aqueous solutions was further diluted to obtain a 1% (w/v) aqueous solution, and the 1% (w/v) aqueous solution was used in the testing within 15 hours from the preparation thereof. As a control, purified water (manufactured and sold by Kyoei Seiyaku Co., Japan) was used.
[4] abbreviates: Example 5 (Table 5): 500 μl blood + 500 μl 1% (w/v) surfactant solution, mean ± SD.
[5] abbreviates: Example 3 (Table 3): 500 μl blood + 500 μl 1% (w/v) surfactant solution, mean ± SD of 3.
Where [6] appears, read: concentration of surfactant 0.05 % (w/v).
[7] abbreviates: concentration of surfactant 0.10 % (w/v).
Where [8] appears, read: concentration of surfactant 0.20 % (w/v).
The mark [9] stands for this setting: concentration of surfactant 0.30 % (w/v).
Setting [10] is: concentration of surfactant 0.50 % (w/v).
Setting [11] is: concentration of surfactant 1.00 % (w/v).
The mark [12] stands for this setting: concentration of surfactant 2.00 % (w/v).
[13] abbreviates: concentration of surfactant 5.00 % (w/v).
Where [14] appears, read: concentration of surfactant 10.00 % (w/v).
[15] abbreviates: Example 4 (Table 4): 500 μl blood + 500 μl 1% (w/v) surfactant solution, mean ± SD.

`CCCCCCCCCCCCCCCCCC[N+](C)(C)C.[Cl-]` [OTAC, Octadecyltrimethylammonium Chloride]: the “MPO concentration of whole blood” value in assay [1] (setting [4]) amounted to 7.47 ± 0.38 µg/mL.

Turning to “α-[4-(1,1,3,3,-Tetramethylbutyl)phenyl]-ω-hydroxypoly(oxy-1,2-ethanediyl) [Igepal ™ CA630]”, in assay [1] (setting [5]), the “MPO concentration of whole blood” value amounted to 6.23 ± 1.42 µg/mL. Also, the “Release amount of MPO in whole blood” value in assay [2] (setting [6]) was 0.103 ± 0.005 Abs. 450 nm; in assay [2] (setting [7]), 0.156 ± 0.009 Abs. 450 nm; in assay [2] (setting [8]), 0.205 ± 0.007 Abs. 450 nm; in assay [2] (setting [9]), 0.211 ± 0.008 Abs. 450 nm; in assay [2] (setting [10]), 0.249 ± 0.002 Abs. 450 nm; in assay [2] (setting [11]), 0.220 ± 0.008 Abs. 450 nm. In addition, the “Release amount of MPO in whole blood” value in assay [2] (setting [12]) is 0.208 ± 0.003 Abs. 450 nm; in assay [2] (setting [13]), 0.199 ± 0.018 Abs. 450 nm; in assay [2] (setting [14]), 0.227 ± 0.006 Abs. 450 nm.

As for “α-(4-Nonylphenyl)-ω-hydroxypoly(oxy-1,2-ethanediyl) [Nissan Nonion NS-208.5]”, the “MPO concentration of whole blood” value in assay [1] (setting [5]) amounted to 6.20 ± 1.51 µg/mL.

Consider `CCCCCCCCCCCCCC[N+](C)(C)C.[Br-]` [TTAB, Tetradecyltrimethylammonium Bromide], for which the entries for the “MPO concentration of whole blood” value in assay [1] (setting [15]) and in assay [1] (setting [4]) were 9.33 ± 1.30 µg/mL and 8.08 ± 0.11 µg/mL, respectively.

On to “α-[4-(1,1,3,3,-Tetramethylbutyl)phenyl]-ω-hydroxypoly(oxy-1,2-ethanediyl) [Triton ™ X-114]”, for which the “Efficiency for releasing intrinsic MPO from the white blood cells (in words)” value in assay [3] was “high activity to release intrinsic MPO”. Also, the “MPO concentration of whole blood” value in assay [1] (setting [5]) turned out to be 7.44 ± 1.81 µg/mL. In addition, the “Release amount of MPO in whole blood” value is listed as 0.120 ± 0.026 Abs. 450 nm in assay [2] (setting [6]); 0.131 ± 0.016 Abs. 450 nm in assay [2] (setting [7]); 0.207 ± 0.004 Abs. 450 nm in assay [2] (setting [8]); 0.198 ± 0.003 Abs. 450 nm in assay [2] (setting [9]); 0.259 ± 0.007 Abs. 450 nm in assay [2] (setting [10]); 0.240 ± 0.006 Abs. 450 nm in assay [2] (setting [11]). The results for the “Release amount of MPO in whole blood” value in assay [2] (setting [12]), in assay [2] (setting [13]) and in assay [2] (setting [14]) were 0.245 ± 0.015 Abs. 450 nm, 0.239 ± 0.002 Abs. 450 nm and 0.243 ± 0.005 Abs. 450 nm, respectively.

As for `CCCCCCCCCCCC[N+](C)(C)C.[Br-]` [DTAB, n-Dodecyltrimethylammonium Bromide], in assay [1] (setting [4]), the “MPO concentration of whole blood” value was 8.05 ± 0.64 µg/mL.

For the molecule `CCCCCCCCCCCCCCCC[N+](C)(C)C.[Br-]` [HTAB, Hexadecyltrimethylammonium Bromide], the “MPO concentration of whole blood” value stood at 5.80 ± 1.41 µg/mL in assay [1] (setting [5]), 9.58 ± 0.53 µg/mL in assay [1] (setting [15]) and 7.15 ± 2.69 µg/mL in assay [1] (setting [4]).

With `CCCCCCCCCCCC[n+]1ccccc1.[Cl-]` [LPC, 1-Laurylpyridinium Chloride], the “MPO concentration of whole blood” value in assay [1] (setting [15]) stood at 9.58 ± 1.39 µg/mL; in assay [1] (setting [4]), 7.57 ± 0.60 µg/mL.

Consider `CCCCCCCCCCCCCCCC[N+](C)(C)C.[Cl-]` [HTAC, Hexadecyltrimethylammonium Chloride], for which the “MPO concentration of whole blood” value in assay [1] (setting [15]) stood at 10.93 ± 0.82 µg/mL; in assay [1] (setting [4]) it was 7.35 ± 0.28 µg/mL.
